# Test results: patent US20200246317A1, “METHODS OF TREATING DIABETIC NEUROPATHY WITH A THIAZOLINE ANTI-HYPERALGESIC AGENT” (CERSCI THERAPEUTICS, INC., priority 2019, published 2020)
# Structures can show the parent of a compound that is named as a salt.
# Experiments:
# [1] = Stability of dose formulations for in vitro genetic toxicology assays; assay type: physicochemical; conditions: 0.001 to 50 mg/mL
# Experimental: In addition, formulation analysis for in vitro genetic toxicology studies was performed using a validated HPLC/UV analytical method (2750-001-001 Dose Formulation Method No. 2) with linearity over a range of 0.001 to 50 mg/mL. Dose formulations for in vitro assays were stable at room temperature for up to 1 day and when stored frozen at −20° C. for up to 45 days.
# OAT3 = biological target: T1, OAT3 (Homo sapiens, UniProt Q8TCC7); assay: Inhibition of transporters, OAT3 (HEK293 cells); assay type: in vitro ADME
# T1 construct: expressed in transfected cells; host or cells: HEK293 cells
# T1 sequence (Q8TCC7 1-542): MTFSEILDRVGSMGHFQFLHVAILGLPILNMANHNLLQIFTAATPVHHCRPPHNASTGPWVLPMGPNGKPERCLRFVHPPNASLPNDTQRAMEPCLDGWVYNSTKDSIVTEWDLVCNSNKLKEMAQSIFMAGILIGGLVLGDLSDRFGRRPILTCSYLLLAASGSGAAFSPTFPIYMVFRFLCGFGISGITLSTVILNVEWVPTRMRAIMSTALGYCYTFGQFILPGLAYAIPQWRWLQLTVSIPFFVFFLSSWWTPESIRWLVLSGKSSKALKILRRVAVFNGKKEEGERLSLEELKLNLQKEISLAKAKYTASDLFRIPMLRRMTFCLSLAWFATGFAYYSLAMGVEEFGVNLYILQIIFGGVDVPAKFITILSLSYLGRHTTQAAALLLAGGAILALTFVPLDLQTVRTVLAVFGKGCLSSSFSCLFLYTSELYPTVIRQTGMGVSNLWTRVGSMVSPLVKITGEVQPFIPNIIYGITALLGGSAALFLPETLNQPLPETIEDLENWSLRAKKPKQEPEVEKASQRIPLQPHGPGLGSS
smiles,measurement,setting,value
"CC1(C)SC(Nc2ccccc2O)=N[C@@H]1C(=O)O [Compound 1, (R)-2-(2-hydroxyphenylamino)-5,5-dimethyl-4,5-dihydrothiazole-4-carboxylic acid mono-hydrochloride]","stability of dose formulations for in vitro assays, time stable",[1]; room temperature,up to 1 day
same,"stability of dose formulations for in vitro assays, time stable",[1]; stored frozen at −20° C.,up to 45 days
same,inhibition of OAT3 (in words),OAT3,weakly inhibits
